Results published in publication PMC1470342 (Environmental Health Perspectives, 1997).

Experiments:
[1] = biological target: T1, Gal4-human ER chimera (Gal4-HEGO) (Homo sapiens, UniProt P03372); assay: Recombinant receptor/reporter gene assay; type: cell-based
T1 sequence (P03372 311-547 limits assumed): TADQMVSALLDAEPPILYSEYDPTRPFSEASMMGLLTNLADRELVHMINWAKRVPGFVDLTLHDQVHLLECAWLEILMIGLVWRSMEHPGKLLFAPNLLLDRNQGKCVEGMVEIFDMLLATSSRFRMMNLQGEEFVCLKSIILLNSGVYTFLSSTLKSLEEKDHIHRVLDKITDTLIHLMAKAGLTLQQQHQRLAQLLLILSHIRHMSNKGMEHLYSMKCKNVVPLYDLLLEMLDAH

ovariectomized CD-1 mice [2] = assay: Vaginal cell cornification assay; type: in vivo, mouse; settings: 202, 16 and 1.7 mg/kg
MCF-7 cells = assay: GC-MS analysis of media from PCB 104-treated transfected MCF-7 cells; settings: MCF-7 cells incubated with PCB 104 for 8, 24, 48 hr; SIM GC-MS
ovariectomized CD-1 mice [3] = assay: Mouse uterotrophic assay; type: in vivo; settings: 202 mg/kg, p < 0.0002
[4] = co-treatment 1 nM E2 plus 0.1, 1, 10 pM (printed)

| Compound | effect on E2-induced luciferase activity compared to E2 alone ([1]; co-treatment 1 nM E2 plus 10 pM (printed; 10 microM in abstract)) | effect on E2-induced luciferase activity compared to E2 alone [1, 4] | vaginal cell cornification, dose response (ovariectomized CD-1 mice [2]) | presence of metabolite HO-PCB 104 or hydroxylated isomers in media extracts (MCF-7 cells) | uterine wet weight versus vehicle control (ovariectomized CD-1 mice [3]) | estrogenic activity in reporter gene assay ([1]; alone, 24 hr) |
| --- | --- | --- | --- | --- | --- | --- |
| Oc1cc(Cl)c(-c2c(Cl)cc(Cl)cc2Cl)c(Cl)c1 [HO-PCB 104, 2,4,6,2',6'-pentachloro-4-biphenylol] | additivity |  |  |  |  |  |
| Clc1cc(Cl)c(-c2c(Cl)cccc2Cl)c(Cl)c1 [PCB 104, 2,4,6,2',6'-pentachlorobiphenyl] |  | no effect | induced vaginal epithelial cell cornification | failed to detect | increased uterine wet weight |  |
| Clc1cc(Cl)c(-c2c(Cl)cc(Cl)cc2Cl)c(Cl)c1 [PCB 155, 2,4,6,2',4',6'-hexachlorobiphenyl] |  | significant antiestrogenic activity |  |  |  | minimal |
